Calls of active or inactive are those of the source. The calls are words filed in the database; no cut-off is given here. Positions of bridges follow the written chain, without caps; N, C: chain ends. Residues, ends and D or L forms follow the SMILES beside them.

The subject of this test is HUVEC. The note with it: Homo sapiens, 50 uM.
Description: Antiangiogenic activity in HUVEC assessed as inhibition of VEGF-A-induced tube formation at 50 uM preincubated for 15 mins prior to VEGF-A addition measured after 4 hrs by matrigel assay
With `CC[C@H](C)[C@@H]1NC(=O)[C@H](Cc2ccc(O)cc2)NC(=O)[C@H](CCC(=O)O)NC(=O)[C@H]([C@@H](C)CC)NC(=O)[C@H](CCC(=O)O)NC(=O)[C@H](CC(=O)O)NC(=O)[C@@H]2CCCN2C(=O)[C@H](Cc2ccc(O)cc2)NC(=O)[C@H](CCC(=O)O)NC(=O)[C@H](CCC(N)=O)NC(=O)[C@@H](N)CSSC[C@@H](C(=O)N[C@@H](CCCCN)C(N)=O)NC1=O` (H-CQEYPDEIEYICK-NH2; disulfide 1-12), the inhibition entry was “Active”.

For the molecule `CSCC[C@@H]1NC(=O)[C@H](CC(C)C)NC(=O)[C@H](CCC(=O)O)NC(=O)[C@H](C(C)C)NC(=O)[C@H]([C@@H](C)O)NC(=O)[C@@H](NC(C)=O)CSSC[C@@H](C(N)=O)NC(=O)[C@@H]2CCCN2C(=O)[C@H](C(C)C)NC(=O)[C@H](CC(C)C)NC(=O)[C@H](CCC(N)=O)NC(=O)[C@H](CCCCN)NC(=O)[C@H](C)NC(=O)[C@H](C(C)C)NC(=O)[C@H]([C@@H](C)O)NC(=O)CNC1=O` (Ac-CTVELMGTVAKQLVPC-NH2; disulfide 1-16), the inhibition entry is “Active”.

As for `CC[C@H](C)[C@@H]1NC(=O)[C@H](Cc2ccc(O)cc2)NC(=O)[C@H](CCC(=O)O)NC(=O)[C@H]([C@@H](C)CC)NC(=O)[C@H](CCC(=O)O)NC(=O)[C@H](CC(=O)O)NC(=O)[C@@H]2CCCN2C(=O)[C@H](Cc2ccc(O)cc2)NC(=O)[C@H](CCC(=O)O)NC(=O)[C@H](CCC(N)=O)NC(=O)[C@H](Cc2ccccc2)NC(=O)[C@@H](N)CSSC[C@@H](C(=O)N[C@@H](CCCCN)C(N)=O)NC1=O` (H-CFQEYPDEIEYICK-NH2; disulfide 1-13), the inhibition result was “Active”.

Source of the values: ChEMBL document CHEMBL4038315, “Identification of Peptidic Antagonists of Vascular Endothelial Growth Factor Receptor 1 by Scanning the Binding Epitopes of Its Ligands” (J Med Chem, 2017).
